The assay addresses IGF1R (Homo sapiens, UniProt P08069). Nature of the assay: Cellular IGF-1R assay: inhibition of IGF1R phosphorylation in transduced Hek293 cells, capture ELISA (MSD). The arrangement: Hek293 cells transduced with the corresponding receptors; expressed in transfected cells; host or cells: Hek293 (Hek293-IGF1R). The assay is classed as cell-based. How it is done: In this assay the activity of the compounds of the invention against Insulin-like growth factor I (IGF-1) induced autophosphorylation of the IGF-IR is determined. The assay is conducted as follows: Compound-mediated inhibition of IGF1R and INSR phosphorylation in Hek293 cells transduced with the corresponding receptors is assessed in a capture ELISA format using the MSD (Meso Scale Discovery) platform. Briefly, 30′000 cells washed and diluted in starvation medium (DMEM high glucose supplemented with 0.1% BSA) are seeded in 90 μL per well into 96-well plates pre-coated with poly-D-lysine (0.1 mg/mL in PBS/0). After 24 h incubation at 37° C. and 5% CO2, dose-response effects are determined with 3-fold serial compound dilutions, starting at 10 μM. The final vehicle concentration is 0.1% DMSO in all wells. Following pre-incubation with compounds for 1 h, receptor phosphorylation is triggered by a 10 min exposure to 1.0 ng/μL IGF for Hek293-IGF1R cells, and 5.0 ng/μL insulin for Hek293-InsR cells. Cell lysis is achieved by addition of 80 μL MSD lysis buffer per aspirated well, incubation on ice for 20 min, and a freeze-thaw cycle. Target phosphorylation is then assessed by transferring volumes corresponding to approx. 6 μg Hek293-IGF1R or 0.6 μg Hek293-InsR lysates to MSD assay plates pre-coated with total-IGF1R or total-InsR Abs, respectively. After incubation for 2 h at rt, wells are exposed for 1 hr to a rabbit monoclonal antibody (CST #3024, 1:1000) detecting pIGF1R(Tyr1135/1136) as well as pINSR(Tyr1150/1151). Immune complexes are detected by a SULFO-Tag™-coupled anti-rabbit IgG antibody in the presence of 150 μL MSD read-buffer. Light emission at 620 nm triggered by application of electric current is recorded on a MSD SectorImager 6000. Acquired raw data (mean Ru-ECL units) are processed in an Excel analysis template. The plate blank (MSD lysis buffer) is subtracted from all data points. The effect of a particular test compound concentration on receptor phosphorylation is expressed relative to the window defined by ligand-stimulated vs unstimulated control cells (set as 100%). IC50 values [nM] are determined using 4-parametric curve-fitting (XLfit software, V4.3.2). Alternatively, the assay can be conducted with a slightly different format; Compound-mediated inhibition of IGF-1R and InsR phosphorylation in HEK293 cells overexpressing the corresponding receptors were assessed by quantitative Western blot using an Odyssey infrared imager as readout.
Compound-mediated inhibition of IGF1R and INSR phosphorylation in Hek293 cells transduced with the corresponding receptors is assessed in a capture ELISA format using the MSD (Meso Scale Discovery) platform. Briefly, 30′000 cells washed and diluted in starvation medium (DMEM high glucose supplemented with 0.1% BSA) are seeded in 90 μL per well into 96-well plates pre-coated with poly-D-lysine (0.1 mg/mL in PBS/O). After 24 h incubation at 37° C. and 5% CO2, dose-response effects are determined with 3-fold serial compound dilutions, starting at 10 μM. The final vehicle concentration is 0.1% DMSO in all wells. Following pre-incubation with compounds for 1 h, receptor phosphorylation is triggered by a 10 min exposure to 1.0 ng/μL IGF for Hek293-IGF1R cells, and 5.0 ng/μL insulin for Hek293-InsR cells. Cell lysis is achieved by addition of 80 μL MSD lysis buffer per aspirated well, incubation on ice for 20 min, and a freeze-thaw cycle. Target phosphorylation is then assessed by transferring volumes corresponding to approx. 6 μg Hek293-IGF1R or 0.6 μg Hek293-lnsR lysates to MSD assay plates pre-coated with total-IGF1R or total-lnsR Abs, respectively. After incubation for 2 h at rt, wells are exposed for 1 hr to a rabbit monoclonal antibody (CST #3024, 1:1000) detecting pIGF1R(Tyr1135/1136) as well as pINSR(Tyr1150/1151). Immune complexes are detected by a SULFO-Tag™-coupled anti-rabbit IgG antibody in the presence of 150 μL MSD read-buffer. […]
In general terms: An ELISA detects its analyte on a solid surface through an enzyme-linked reagent.
Chain of IGF1R (P08069 31-1367): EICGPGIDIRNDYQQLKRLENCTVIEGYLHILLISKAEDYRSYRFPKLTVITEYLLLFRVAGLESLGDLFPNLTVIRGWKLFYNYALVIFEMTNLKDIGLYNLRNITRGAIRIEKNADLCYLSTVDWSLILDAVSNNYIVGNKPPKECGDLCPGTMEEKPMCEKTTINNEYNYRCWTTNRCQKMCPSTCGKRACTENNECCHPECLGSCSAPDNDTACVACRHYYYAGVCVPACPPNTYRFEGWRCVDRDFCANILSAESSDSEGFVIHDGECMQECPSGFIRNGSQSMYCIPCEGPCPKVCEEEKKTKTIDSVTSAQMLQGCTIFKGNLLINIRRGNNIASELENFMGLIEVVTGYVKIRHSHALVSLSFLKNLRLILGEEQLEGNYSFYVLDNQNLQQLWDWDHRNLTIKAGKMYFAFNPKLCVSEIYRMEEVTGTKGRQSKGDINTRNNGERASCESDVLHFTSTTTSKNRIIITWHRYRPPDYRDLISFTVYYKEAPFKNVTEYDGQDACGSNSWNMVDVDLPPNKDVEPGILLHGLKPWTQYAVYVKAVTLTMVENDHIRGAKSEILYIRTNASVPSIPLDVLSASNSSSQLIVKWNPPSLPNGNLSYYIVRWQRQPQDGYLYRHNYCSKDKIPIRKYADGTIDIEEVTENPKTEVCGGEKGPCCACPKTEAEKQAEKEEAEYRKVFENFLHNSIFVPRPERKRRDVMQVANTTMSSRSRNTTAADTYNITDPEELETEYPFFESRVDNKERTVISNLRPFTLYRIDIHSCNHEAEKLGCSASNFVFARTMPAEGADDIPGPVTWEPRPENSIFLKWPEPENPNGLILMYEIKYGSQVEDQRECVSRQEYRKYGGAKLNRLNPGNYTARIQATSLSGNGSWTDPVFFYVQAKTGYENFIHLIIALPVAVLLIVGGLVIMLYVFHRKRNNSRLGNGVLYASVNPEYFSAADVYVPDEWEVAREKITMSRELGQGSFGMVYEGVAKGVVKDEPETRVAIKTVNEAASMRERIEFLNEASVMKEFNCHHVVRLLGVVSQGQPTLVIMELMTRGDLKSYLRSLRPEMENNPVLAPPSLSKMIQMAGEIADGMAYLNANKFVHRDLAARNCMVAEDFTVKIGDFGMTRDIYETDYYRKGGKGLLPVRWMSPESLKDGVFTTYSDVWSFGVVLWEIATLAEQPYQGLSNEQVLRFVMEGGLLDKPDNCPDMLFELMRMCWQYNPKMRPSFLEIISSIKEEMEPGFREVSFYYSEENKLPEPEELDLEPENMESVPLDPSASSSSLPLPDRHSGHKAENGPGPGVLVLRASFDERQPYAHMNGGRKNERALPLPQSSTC
As for `CC1(O)CC(c2nc(-c3ccc4c(c3)O[C@@H](c3ccccc3)CC4)c3c(N)nccn23)C1` (stereo partly drawn) [Example 19, (R,S)—(Z)-3-[8-Amino-1-(2-phenyl-chroman-7-yl)-imidazo[1,5-a]pyrazin-3-yl]-1-methylcyclobutanol], the IC50 is 158 nM.

`Nc1ncnc2c1c(-c1ccc3c(c1)OC(c1ccccc1)=CC3)cn2[C@H]1C[C@@H](CN2CCS(=O)(=O)CC2)C1` [Example 20, 7-[cis-3-(1,1-Dioxo-1-thiomorpholin-4-ylmethyl)-cyclobutyl]-5-(2-phenyl-4H-chromen-7-yl)-7H-pyrrolo[2,3-d]pyrimidin-4-ylamine] had an IC50 of 179 nM. `Nc1ncnc2c1c(-c1ccc3c(c1)O[C@@H](c1ccccc1)CC3)cn2[C@H]1C[C@@H](CN2CCS(=O)(=O)CC2)C1` [Example 24, (R)-7-[cis-3-(1,1-Dioxo-thiomorpholin-4-ylmethyl)-cyclobutyl]-5-(2-phenyl-chroman-7-yl)-7H-pyrrolo[2,3-d]pyrimidin-4-ylamine] registered an IC50 of 8 nM. Under `Nc1ncnc2c1c(-c1ccc3c(c1)O[C@H](c1ccccc1)CC3)cn2[C@H]1C[C@@H](CN2CCS(=O)(=O)CC2)C1` [Example 25, (S)-7-[cis-3-(1,1-dioxo-thiomorpholin-4-ylmethyl)-cyclobutyl]-5-(2-phenyl-chroman-7-yl)-7H-pyrrolo[2,3-d]pyrimidin-4-ylamine] stands 9 nM; under `Nc1ncnc2c1c(-c1ccc3c(c1)OC(c1ccccc1)CC3)cn2C1CC(CN2CCC(O)CC2)C1` (centres unmarked) [Example 37, 1-{3-[4-Amino-5-(2-phenyl-chroman-7-yl)-pyrrolo[2,3-d]pyrimidin-7-yl]-cyclobutylmethyl}-piperidin-4-ol], 46 nM. As to `Nc1ncnc2c1c(-c1ccc3c(c1)OC(c1ccccc1)CC3)cn2[C@H]1C[C@@]2(COC(=O)O2)C1` (some centres unmarked) [Example 43, (E)-2-[4-Amino-5-(2-phenyl-chroman-7-yl)-pyrrolo[2,3-d]pyrimidin-7-yl]-5,7-dioxa-spiro[3.4]octan-6-one], the 50% inhibitory concentration (IC50) turned out to be 76 nM.

`Nc1ncnc2c1c(-c1ccc3c(c1)OC(c1ccccc1)CC3)cn2[C@H]1C[C@@]2(CNC(=O)O2)C1` (some centres unmarked) [Example 44, (E)-2-[4-Amino-5-(2-phenyl-chroman-7-yl)-pyrrolo[2,3-d]pyrimidin-7-yl]-5-oxa-7-aza-spiro[3.4]octan-6-one]: the IC50 was 16 nM. In turn, `Nc1ncnc2c1c(-c1ccc3c(c1)OC(c1ccccc1)CC3)cn2[C@H]1C[C@@](O)(CN2CCS(=O)(=O)CC2)C1` (some centres unmarked) [Example 45, (E)-3-[4-Amino-5-(2-phenyl-chroman-7-yl)-pyrrolo[2,3-d]pyrimidin-7-yl]-1-(1,1-dioxothiomorpholin-4-ylmethyl)-cyclobutanol] returned an IC50 below 5 nM. Under `CN1CCN(CC2CC(n3cc(-c4ccc5c(c4)OC(c4ccccc4)CC5)c4c(N)ncnc43)C2)CC1=O` (centres unmarked) [Example 46, 4-{3-[4-Amino-5-(2-phenyl-chroman-7-yl)-pyrrolo[2,3-d]pyrimidin-7-yl]-cyclobutylmethyl}-1-methyl-piperazin-2-one] stands 49 nM; under `Nc1ncnc2c1c(-c1ccc3c(c1)OC(c1ccccc1)CC3)cn2[C@H]1C[C@@](O)(Cn2cnnc2)C1` (some centres unmarked) [Example 47, (E)-3-[4-Amino-5-(2-phenyl-chroman-7-yl)-pyrrolo[2,3-d]pyrimidin-7-yl]-1-[1,2,4]triazol-4-ylmethylcyclobutanol], 525 nM. Under `Nc1ncnc2c1c(-c1ccc3c(c1)OC1(CCCCC1)CC3)cn2[C@H]1C[C@@H](CN2CCS(=O)(=O)CC2)C1` [Example 53, 7-(cis-3-(1,1-dioxo-thiomorpholin-4-ylmethyl)cyclobutyl)-5-(spiro[chroman-2,1′-cyclohexane]-7-yl)-7H-pyrrolo[2,3-d]pyrimidin-4-amine] stands 202 nM. In turn, `Nc1ncnc2c1c(-c1ccc3c(c1)OC(c1ccccn1)CC3)cn2C1CC(CN2CC3CC2CS3(=O)=O)C1` [Example 62, 7-[cis-3-((S,S)-2,2-Dioxo-2λ6-thia-5-aza-bicyclo[2,2,1]kept-5-ylmethyl)-cyclobutyl]-5-(2-pyridin-2-yl-chroman-7-yl)-7H-pyrrolo[2,3-d]pyrimidin-4-ylamine] gave an IC50 of 69 nM.

Consider “(R,S)—(Z)-3-[8-Amino-1-(2-phenyl-chroman-7-yl)-imidazo[1,5-a]pyrazin-3-yl]-1-hydroxymethyl-cyclobutanol and (R,S)-(E)-3-[8-amino-1-(2-phenyl-chroman-7-yl)-imidazo[1,5-a]pyrazin-3-yl]-1-hydroxymethyl-cyclobutanol [Example 5]”, for which the IC50 was found to be 100 nM.

The compound “(R,S)—N-{cis-3-[4-Amino-5-(2-phenyl-chroman-7-yl)-pyrrolo[2,3-d]pyrimidin-7-yl]-cyclobutylmethyl}-methanesulfonamide [Example 17]” gave an IC50 of 24 nM.

One may read the IC50 as the point on the concentration scale where inhibition reaches its midpoint. A low value points to greater potency.

(Values after patent US20120289501A1, “Benzene-fused 6-membered oxygen-containing heterocyclic derivatives of bicyclic heteroaryls” (NOVARTIS AG, priority 2009, published 2012).)
